Laboratory results from patent US12594276B2, “Inhibitors of human immunodeficiency virus replication” (ViiV Healthcare UK (No.5) Limited, priority 2024, dated 2026).
Read-outs that look alike come from different tables or passages of the source.

Assays:
[1] = Compound cytotoxicity, XTT-based colorimetric assay; format: cell-based; settings: human
Method in brief: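 Follows the antiviral assay procedure, but with uninfected MT2 cells. On day 4, cell viability is measured by XTT-based colorimetry, giving CC50 values.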

[2] = tested on: recombinant NL4-3 virus (nef section replaced with Renilla luciferase gene) in MT-2 cells; test: HIV cell culture assay (antiviral activity, luciferase readout); format: cell-based; settings: Renilla, NL43, MT-2 cells infected for 4-5 days with recombinant NL4-3 Renilla luciferase virus
Method in brief: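 Antiviral EC50 derived from luciferase signal using the exponential median effect equation. Infection of MT-2 cells ran 4-5 days alongside serial dilutions of compound, with virus generated by proviral clone transfection of 293T cells.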

[3] = uninfected MT2 cells, day 4, XTT, read-out: CC50

SMILES	CC50 at 4 days [1, 3] [nM]	EC50 [2] [nM]	CC50 at 4 days [1] [nM]
C[C@@H]1CN(CCn2nc(NS(C)(=O)=O)c3c(Cl)ccc(-n4c([C@H](Cc5cc(F)cc(F)c5)NC(=O)Cn5nc(C(F)F)c6c5C(F)(F)[C@@H]5C[C@H]65)nc5nc(C6CCC(F)(F)CC6)cc(CN6C[C@@H](C)O[C@@H](C)C6)c5c4=O)c32)C[C@H](C)O1 (atropisomer, axis not shown; (P)) [Example 528, N-[(1S)-1-[(3P)-3-(4-chloro-1-{2-[(2R,6S)-2,6-dimethylmorpholin-4-yl]ethyl}-3-methanesulfonamido-1H-indazol-7-yl)-7-(4,4-difluorocyclohexyl)-5-{[(2R,6S)-2,6-dimethylmorpholin-4-yl]methyl}-4-oxo-3H,4H-pyrido[2,3-d]pyrimidin-2-yl]-2-(3,5-difluorophenyl)ethyl]-2-[(2S,4R)-9-(difluoromethyl)-5,5-difluoro-7,8-diazatricyclo[4.3.0.0^2,^4]nona-1(6),8-dien-7-yl]acetamide]	> 20	0.006	–
C[C@@H]1CN(Cc2cc(C3CCC(F)(F)CC3)nc3nc([C@H](Cc4cc(F)cc(F)c4)NC(=O)Cn4nc(C(F)F)c5c4C(F)(F)[C@@H]4C[C@H]54)n(-c4ccc(Cl)c5c(NS(C)(=O)=O)nn(CCN6CC(C)(C)OC(C)(C)C6)c45)c(=O)c23)C[C@H](C)O1 (atropisomer, axis not shown; (P)) [Example 529, N-[(1S)-1-[(3P)-3-{4-chloro-3-methanesulfonamido-1-[2-(2,2,6,6-tetramethylmorpholin-4-yl)ethyl]-1H-indazol-7-yl}-7-(4,4-difluorocyclohexyl)-5-{[(2R,6S)-2,6-dimethylmorpholin-4-yl]methyl}-4-oxo-3H,4H-pyrido[2,3-d]pyrimidin-2-yl]-2-(3,5-difluorophenyl)ethyl]-2-[(2S,4R)-9-(difluoromethyl)-5,5-difluoro-7,8-diazatricyclo[4.3.0.0^2,4]nona-1(6),8-dien-7-yl]acetamide]	> 1000	0.017	–
COCCCn1nc(NS(C)(=O)=O)c2c(Cl)ccc(-n3c([C@H](Cc4cc(F)cc(F)c4)NC(=O)Cn4nc(C(F)F)c5c4C(F)(F)[C@@H]4C[C@H]54)nc4nc(C5CCC(F)(F)CC5)cc(CN5C[C@@H](F)[C@@H](F)C5)c4c3=O)c21 (atropisomer, axis not shown; (P)) [Example 530, N-[(1S)-1-[(3P)-3-[4-chloro-3-methanesulfonamido-1-(3-methoxypropyl)-1H-indazol-7-yl]-7-(4,4-difluorocyclohexyl)-5-{[(3R,4S)-3,4-difluoropyrrolidin-1-yl]methyl}-4-oxo-3H,4H-pyrido[2,3-d]pyrimidin-2-yl]-2-(3,5-difluorophenyl)ethyl]-2-[(2S,4R)-9-(difluoromethyl)-5,5-difluoro-7,8-diazatricyclo[4.3.0.0^2,^4]nona-1(6),8-dien-7-yl]acetamide]	> 20	0.008	–
COCCCn1nc(NS(C)(=O)=O)c2c(Cl)ccc(-n3c([C@H](Cc4cc(F)cc(F)c4)NC(=O)Cn4nc(C(F)F)c5c4C(F)(F)[C@@H]4C[C@H]54)nc4nc(C5CCC(F)(F)CC5)cc(CN5C[C@H]6C[C@@H](C5)O6)c4c3=O)c21 (atropisomer, axis not shown; (P)) [Example 531, N-[(1S)-1-[(3P)-3-[4-chloro-3-methanesulfonamido-1-(3-methoxypropyl)-1H-indazol-7-yl]-7-(4,4-difluorocyclohexyl)-5-{[(1R,5S)-6-oxa-3-azabicyclo[3.1.1]heptan-3-yl]methyl}-4-oxo-3H,4H-pyrido[2,3-d]pyrimidin-2-yl]-2-(3,5-difluorophenyl)ethyl]-2-[(2S,4R)-9-(difluoromethyl)-5,5-difluoro-7,8-diazatricyclo[4.3.0.0^2,^4]nona-1(6),8-dien-7-yl]acetamide]	–	0.021	> 20
COCCCn1nc(NS(C)(=O)=O)c2c(Cl)ccc(-n3c([C@H](Cc4cc(F)cc(F)c4)NC(=O)Cn4nc(C(F)F)c5c4C(F)(F)[C@@H]4C[C@H]54)nc4nc(C5CCC(F)(F)CC5)cc(NCCN5CCN(C)CC5)c4c3=O)c21 (atropisomer, axis not shown; (P)) [Example 535, N-[(1S)-1-[(3P)-3-[4-chloro-3-methanesulfonamido-1-(3-methoxypropyl)-1H-indazol-7-yl]-7-(4,4-difluorocyclohexyl)-5-{[2-(4-methylpiperazin-1-yl)ethyl]amino}-4-oxo-3H,4H-pyrido[2,3-d]pyrimidin-2-yl]-2-(3,5-difluorophenyl)ethyl]-2-[(2S,4R)-9-(difluoromethyl)-5,5-difluoro-7,8-diazatricyclo[4.3.0.0^2,^4]nona-1(6),8-dien-7-yl]acetamide]	> 20	0.057	–
COCCCn1nc(NS(C)(=O)=O)c2c(Cl)ccc(-n3c([C@H](Cc4cc(F)cc(F)c4)NC(=O)Cn4nc(C(F)F)c5c4C(F)(F)[C@@H]4C[C@H]54)nc4nc(C5CCC(F)(F)CC5)cc(NCCN5CCN(C(C)=O)CC5)c4c3=O)c21 (atropisomer, axis not shown; (P)) [Example 536, N-[(1S)-1-[(3P)-5-{[2-(4-acetylpiperazin-1-yl)ethyl]amino}-3-[4-chloro-3-methanesulfonamido-1-(3-methoxypropyl)-1H-indazol-7-yl]-7-(4,4-difluorocyclohexyl)-4-oxo-3H,4H-pyrido[2,3-d]pyrimidin-2-yl]-2-(3,5-difluorophenyl)ethyl]-2-[(2S,4R)-9-(difluoromethyl)-5,5-difluoro-7,8-diazatricyclo[4.3.0.0^2,^4]nona-1(6),8-dien-7-yl]acetamide]	> 20	0.025	–
COCCCn1nc(NS(C)(=O)=O)c2c(Cl)ccc(-n3c([C@H](Cc4cc(F)cc(F)c4)NC(=O)Cn4nc(C(F)F)c5c4C(F)(F)[C@@H]4C[C@H]54)nc4nc(C5CCC(F)(F)CC5)cc(CN5CC(F)(F)C5)c4c3=O)c21 (atropisomer, axis not shown; (P)) [Example 538, N-[(1S)-1-[(3P)-3-[4-chloro-3-methanesulfonamido-1-(3-methoxypropyl)-1H-indazol-7-yl]-5-[(3,3-difluoroazetidin-1-yl)methyl]-7-(4,4-difluorocyclohexyl)-4-oxo-3H,4H-pyrido[2,3-d]pyrimidin-2-yl]-2-(3,5-difluorophenyl)ethyl]-2-[(2S,4R)-9-(difluoromethyl)-5,5-difluoro-7,8-diazatricyclo[4.3.0.0^2,4]nona-1(6),8-dien-7-yl]acetamide]	> 20	0.007	–
COCCCn1nc(NS(C)(=O)=O)c2c(Cl)ccc(-n3c([C@H](Cc4cc(F)cc(F)c4)NC(=O)Cn4nc(C(F)F)c5c4C(F)(F)[C@@H]4C[C@H]54)nc4nc(C5CCC(F)(F)CC5)cc(NCC(C)(C)N5CCCCC5)c4c3=O)c21 (atropisomer, axis not shown; (P)) [Example 539, N-[(1S)-1-[(3P)-3-[4-chloro-3-methanesulfonamido-1-(3-methoxypropyl)-1H-indazol-7-yl]-7-(4,4-difluorocyclohexyl)-5-{[2-methyl-2-(piperidin-1-yl)propyl]amino}-4-oxo-3H,4H-pyrido[2,3-d]pyrimidin-2-yl]-2-(3,5-difluorophenyl)ethyl]-2-[(2S,4R)-9-(difluoromethyl)-5,5-difluoro-7,8-diazatricyclo[4.3.0.0^2,^4]nona-1(6),8-dien-7-yl]acetamide]	> 20	0.006	–
COCCCn1nc(NS(C)(=O)=O)c2c(Cl)ccc(-n3c([C@H](Cc4cc(F)cc(F)c4)NC(=O)Cn4nc(C(F)F)c5c4C(F)(F)[C@@H]4C[C@H]54)nc4nc(C5CCC(F)(F)CC5)cc(NCCc5ccn(C)n5)c4c3=O)c21 (atropisomer, axis not shown; (P)) [Example 543, N-[(1S)-1-[(3P)-3-[4-chloro-3-methanesulfonamido-1-(3-methoxypropyl)-1H-indazol-7-yl]-7-(4,4-difluorocyclohexyl)-5-{[2-(1-methyl-1H-pyrazol-3-yl)ethyl]amino}-4-oxo-3H,4H-pyrido[2,3-d]pyrimidin-2-yl]-2-(3,5-difluorophenyl)ethyl]-2-[(2S,4R)-9-(difluoromethyl)-5,5-difluoro-7,8-diazatricyclo[4.3.0.0^2,^4]nona-1(6),8-dien-7-yl]acetamide]	> 20	0.014	–
COCCCn1nc(NS(C)(=O)=O)c2c(Cl)ccc(-n3c([C@H](Cc4cc(F)cc(F)c4)NC(=O)Cn4nc(C(F)F)c5c4C(F)(F)[C@@H]4C[C@H]54)nc4nc(C5CCC(F)(F)CC5)cc(NCC(C)(C)N5CCOCC5)c4c3=O)c21 (atropisomer, axis not shown; (P)) [Example 546, N-[(1S)-1-[(3P)-3-[4-chloro-3-methanesulfonamido-1-(3-methoxypropyl)-1H-indazol-7-yl]-7-(4,4-difluorocyclohexyl)-5-{[2-methyl-2-(morpholin-4-yl)propyl]amino}-4-oxo-3H,4H-pyrido[2,3-d]pyrimidin-2-yl]-2-(3,5-difluorophenyl)ethyl]-2-[(2S,4R)-9-(difluoromethyl)-5,5-difluoro-7,8-diazatricyclo[4.3.0.0^2,^4]nona-1(6),8-dien-7-yl]acetamide]	> 20	0.017	–
COCCCn1nc(NS(C)(=O)=O)c2c(Cl)ccc(-n3c([C@H](Cc4cc(F)cc(F)c4)NC(=O)Cn4nc(C(F)F)c5c4C(F)(F)[C@@H]4C[C@H]54)nc4nc(C5CCC(F)(F)CC5)cc(NCCC5CCCCC5)c4c3=O)c21 (atropisomer, axis not shown; (P)) [Example 549, N-[(1S)-1-[(3P)-3-[4-chloro-3-methanesulfonamido-1-(3-methoxypropyl)-1H-indazol-7-yl]-5-[(2-cyclohexylethyl)amino]-7-(4,4-difluorocyclohexyl)-4-oxo-3H,4H-pyrido[2,3-d]pyrimidin-2-yl]-2-(3,5-difluorophenyl)ethyl]-2-[(2S,4R)-9-(difluoromethyl)-5,5-difluoro-7,8-diazatricyclo[4.3.0.0^2,^4]nona-1(6),8-dien-7-yl]acetamide]	> 20	0.258	–
